Where a SMILES comes first, the peptide text is derived from it. [ ]: non-standard residue; d: D form. The star is where a group is joined. Met(O2) = CS(=O)(=O)CC[C@H](N)C(=O)O; Palmitoyl = CCCCCCCCCCCCCCCC(=O)*
Columns and labels:
dermal NHF = test: Immunostaining method on dermal NHF: collagen I (Table 7, Test 2); format: cell-based, human; details: % difference compared to the control
Source text: Table 7 showing % differences in collagen I in the dermis compared to the control for dioxygenated peptide compounds according to the immunostaining method or to ELISA test on dermal NHF

[1] = tested on: normal human dermal fibroblasts (NHF); test: Immunofluorescence (IMF) on normal human dermal fibroblasts (NHF): collagen III; format: cell-based; details: 5 ppm peptide
Experimental: > Immunofluorescence (IMF) on normal human dermal fibroblasts (NHF)
This test examines dermal molecules.
Norman human fibroblasts are cultured in plates. The cells either are or are not placed in contact with the test substances for […]. The cell layers are then labeled with antibodies specifically recognizing collagen III. Photographs were used to reveal and quantify the synthesis of collagen III.

Human Keratinocytes (HK) = test: ELISA test on Human Keratinocytes (HK): macromolecules in culture supernatant; format: cell-based; details: epidermal HK, % difference compared to the control
Experimental: > ELISA test on Human Keratinocytes (HK)
This test examines epidermal molecules.
Human keratinocytes are cultured in multi-well plates. The cells either are or are not placed in contact with the test substances for 3 days. The culture supernatants are removed and the quantity of macromolecules present (fibronectin, laminins and hyaluronic acid) is assayed by ELISA.

[2] = tested on: normal human dermal fibroblasts (NHF); test: ELISA test on normal human dermal fibroblasts (NHF): macromolecules in culture supernatant; format: cell-based; details: % difference compared to the control; for Collagen I in the dermis: 3 days contact; for Collagen I in the dermis Test 1: Table 7
Experimental: > ELISA test on normal human dermal fibroblasts (NHF)
This test examines the dermal molecules.
Normal human dermal fibroblasts are cultured in multi-well plates. The cells either are or are not placed in contact with the test substances for 3 days. The culture supernatants are removed and the quantity of macromolecules present (collagen I, fibronectin, collagen IV and hyaluronic acid) is assayed by ELISA.

[3] = Table 5, ELISA, 5 ppm peptide, no plant

For `CCCCCCCCCCCCCCCC(=O)N[C@@H](CCCCN)C(=O)N[C@@H](CCS(C)(=O)=O)C(=O)N[C@@H](CCCCN)C(=O)O` [Pal-KMO2K-OH] (Palmitoyl-Lys-[Met(O2)]-Lys-OH), the “Collagen I in the dermis Test 2” value (dermal NHF; 2 ppm) was “+329%”, the “Collagen I in the dermis Test 2” value (dermal NHF; 4 ppm) was “+423%” and the “Collagen I in the dermis Test 2” value (dermal NHF; 5 ppm) was “+486%”. The “Coll. III” value ([1]; % difference compared to the control, 35 days contact) was “+104%”, the “Coll. III” value ([1]; Table 5, % difference compared to the control, no plant) was “+104%” and the Hyaluronic acid (Human Keratinocytes (HK); Table 6, 2 ppm peptide, no plant) was “+44%”. For the same compound, the Hyaluronic acid (Human Keratinocytes (HK); Table 6, 4 ppm peptide, no plant) was “+139%”, the Hyaluronic acid (Human Keratinocytes (HK); Table 6, 5 ppm peptide, no plant) was “+172%” and the Hyaluronic acid (Human Keratinocytes (HK); Table 6, 6 ppm peptide, no plant) was “+290%”. For the same compound, the Fibronectin (Human Keratinocytes (HK); 4 ppm peptide) was “+35%”, the Hyaluronic acid (Human Keratinocytes (HK); 4 ppm peptide) was “+139%” and the Laminins (Human Keratinocytes (HK); 4 ppm peptide) was “+30%”. The Fibronectin (Human Keratinocytes (HK); 5 ppm peptide) was “+65%”, the Hyaluronic acid (Human Keratinocytes (HK); 5 ppm peptide) was “+172%” and the Laminins (Human Keratinocytes (HK); 5 ppm peptide) was “+66%”. The Fibronectin (Human Keratinocytes (HK); 6 ppm peptide) was “+159%”, the Hyaluronic acid (Human Keratinocytes (HK); 6 ppm peptide) was “+290%” and the Laminins (Human Keratinocytes (HK); 6 ppm peptide) was “+172%”. The “Coll. I” value ([2]; 4 ppm peptide) was “+188%”, the “Coll. IV” value ([2]; 4 ppm peptide) was “+27%” and the “Collagen I in the dermis” value ([2]; 4 ppm peptide) was “+188%”. The “Coll. I” value ([2]; 6 ppm peptide) was “+187%”, the “Coll. IV” value ([2]; 6 ppm peptide) was “+97%” and the “Collagen I in the dermis” value ([2]; 6 ppm peptide) was “+187%”. For the same compound, the “Coll. I” value [2, 3] was “+111%”, the “Coll. IV” value [2, 3] was “+42%” and the Fibronectin [2, 3] was “+59%”. The Hyaluronic acid [2, 3] was “≈0%”, the “Collagen I in the dermis Test 1” value ([2]; 4 ppm) was “+188%” and the “Collagen I in the dermis Test 1” value ([2]; 6 ppm) was “+187%”. For the same compound, the Fibronectin ([2]; dermal NHF, 4 ppm peptide) was “+42%”, the Hyaluronic acid ([2]; dermal NHF, 4 ppm peptide) was “≈0%” and the Fibronectin ([2]; dermal NHF, 6 ppm peptide) was “+109%”. The Hyaluronic acid ([2]; dermal NHF, 6 ppm peptide) was “+55%”.

From patent EP3744729B1, “PEPTIDES, COMPOSITIONS COMPRISING THEM AND COSMETIC AND DERMOPHARMACEUTICAL USES” (SEDERMA, priority 2009, dated 2023)
